What was measured:
[1] = Determination of half-lives for the imine hydrolysis in model compounds (AMC release, fluorescence)
Experimental: (§1) Half-lives of imine hydrolysis are determined by measuring the decrease of the concentration of the imine and/or the increase of the concentration of the hydrolysis products e.g. by fluorescence methods, HPLC, infrared spectroscopy and/or NMR spectroscopy.
(§2) For example, in the case of compounds comprising above groups Ar and the fluorescent dye AMC (cf. FIG. 3), half-lives of imine hydrolysis are determined by measuring the increase in fluorescence that corresponds to the release of AMC from the model compounds.
(§3) • 200 μL solution per well; • Wavelength: λex=390 nm, λem=460 nm; • Temperature: 37° C.

[2] = buffer
Experimental: as §1, §2, §3

Row | half-life ([1]; acetate buffer, pH 5) [min] | half-life ([1]; phosphate buffer, pH 7.4) [min] | t1/2 pH 5.0 (half-life of imine hydrolysis) ([2]; pH 5) [min] | t1/2 pH 7.4 (half-life of imine hydrolysis) ([2]; pH 7.4) [h] | Compound
1 | 34 | 480 |  |  | Cc1cc(=O)oc2cc(NC(=O)OCc3ccc(N=Cc4ccccc4)cc3)ccc12 [Compound 4, 4-(Benzylideneamino)benzyl 4-methylcoumarin-7-ylcarbamate]
2 | 34 | 5340 |  |  | Cc1cc(=O)oc2cc(NC(=O)OCc3ccc(N=Cc4c(F)c(F)cc(F)c4F)cc3)ccc12 [Compound 5, 4-(2,3,5,6-Tetrafluorobenzylideneamino)benzyl 4-methylcoumarin-7-ylcarbamate]
3 |  |  | 173 | 365 | 4-(Perfluorobenzylideneamino)benzyl 4-methylcoumarin-7-ylcarbamate [Compound 6]

— patent US8609860B2, “Acid-labile trigger units” (KTB Tumorforschungsgesellschaft mbH, priority 2009, dated 2013)
